Here are results for three substances from patent publication US11505586B2, “Interaction of Draxin and γ-netrins” (Max-Planck-Gesellschaft zur Foerderung der Wissenschaften …, priority 2014, dated 2022).

Experiment [1] concerns human β-Netrin family members. Briefly: AVEXIS pairwise binding screen, human proteins. The conditions noted are these: Netrin-4, Netrin-G1, Netrin-G2. The source says:
(§1) AVEXIS was used to test pairwise binding events in both bait/prey orientations between human DRAXIN, the derived 21 amino acid peptide, human Netrin family members, and two representative Netrin receptors (DCC, UNC5B). The Matn4-bait served as an internal prey-protein control and was used for normalization of the A486 nm values; conditioned medium (CM) serves as negative control; n=3.
(§2) To determine the binding specificity of DRAXIN/Netrin interactions, we carried out a pairwise binding screen between human DRAXIN and human Netrin family members. Except Netrin-5, we included all human Netrin family members consisting of two secreted γ-Netrins (Netrin-1 and Netrin-3) and one secreted (Netrin-4) and two GPI-linked β-Netrins (Netrin-G1 and Netrin-G2) in our binding study. Human DRAXIN and a 21 amino acid Netrin binding fragment derived thereof (SEQ ID NO.: 1) bound to Netrin-1 and Netrin-3 but not to human β-Netrin family members (FIG. 13).

In the next experiment the target is T1, Netrin-1 (Homo sapiens, UniProt O95631).
T1 construct: made in house; host or cells: HEK293-6E (general AVEXIS method)
Briefly: AVEXIS pairwise binding screen, human proteins. Particulars: both bait/prey orientations.
Description: as §1, §2

Another experiment deals with T2, Netrin-3 (Homo sapiens, UniProt O00634).
T2 construct: made in house; host or cells: HEK293-6E (general AVEXIS method)
T2 sequence (O00634 28-580): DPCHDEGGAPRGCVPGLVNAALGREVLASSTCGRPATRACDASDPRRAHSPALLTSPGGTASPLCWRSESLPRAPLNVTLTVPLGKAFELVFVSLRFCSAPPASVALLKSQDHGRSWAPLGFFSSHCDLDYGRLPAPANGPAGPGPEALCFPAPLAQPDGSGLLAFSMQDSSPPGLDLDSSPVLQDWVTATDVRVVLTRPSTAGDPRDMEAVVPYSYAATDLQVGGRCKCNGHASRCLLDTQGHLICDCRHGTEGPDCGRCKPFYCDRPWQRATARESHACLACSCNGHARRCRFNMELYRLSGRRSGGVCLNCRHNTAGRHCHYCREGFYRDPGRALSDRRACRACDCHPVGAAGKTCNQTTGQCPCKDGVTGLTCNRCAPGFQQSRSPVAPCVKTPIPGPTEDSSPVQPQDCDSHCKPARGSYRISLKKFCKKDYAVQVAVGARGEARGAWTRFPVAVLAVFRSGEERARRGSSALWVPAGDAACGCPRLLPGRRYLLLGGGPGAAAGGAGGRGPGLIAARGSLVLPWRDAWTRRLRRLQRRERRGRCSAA
Briefly: AVEXIS pairwise binding screen, human proteins. Particulars: both bait/prey orientations.
Description: as §1, §2

A further experiment has as its target Islr2. Kind of experiment: Vasn/Islr2 interaction used to adjust the AVEXIS screen. Type of experiment: binding. The conditions noted are these: Vasn (Slit-like2)/Islr2, in preparation. The method, then: The bait proteins have been immobilized on streptavidin coated 96 well microtiter plates (one bait/well) and incubated for 1 hour at room temperature. After 3 wash steps using HBS as wash buffer the baits have been probed by 50 μl of normalized prey proteins. After one-hour incubation the non-bound preys have been washed away by 2 washes with HBST (0.05% Tween) followed by two HBS washes. Then 50 μl of nitrocefin/well (0.1 mg/ml) has been added and incubated for 1 h at room temperature. Then the absorbance at 486 nm of each well has been measured using a μQuant spectrophotometer (BIO-TEK Instruments, INC). As a positive control for the prey proteins we used the Matn4 ECD as mono-biotinylated bait protein.

Experiment [2] concerns Netrin1a. Briefly: AVEXIS extracellular protein-protein interaction screen. The conditions noted are these: prey against 141 bait proteins, bait against 191 prey proteins. It counts as binding, zebrafish. The source says: To detect extracellular protein-protein interactions in a high-throughput manner we used the AVEXIS assay as described in Bushell et al. (Bushell et al., 2008) with minor modifications.
In brief: A zebrafish protein library enriched for mainly in neuronal tissues expressed secreted proteins and extracellular domains of cell surface proteins has been assembled. The library consists of prey and bait proteins. Preys are composed of the extracellular domain (ECD) of interest followed by a CD4 tag (rat Cd4d3+4) and a pentamerization domain derived from the rat Comp protein followed by β-lactamase. For the bait proteins the ECDs are fused to a CD4 tag and a biotinylation peptide. […] The proteins in the supernatants have been quantified and normalized.
The bait proteins have been immobilized on streptavidin coated 96 well microtiter plates (one bait/well) and incubated for 1 hour at room temperature. […] Then the absorbance at 486 nm of each well has been measured using a μQuant spectrophotometer (BIO-TEK Instruments, INC). […]
In the primary screen interactions were ‘called’ if the absorbance (at 486 nm) of a well after 1 h of incubation was ≥0.1 and 3 Sigma above the standard deviations of the mean of all wells. All interactions detected in the primary screen have been retested in a validation screen by using independently produced batches of proteins.

In experiment [3] the test system is Netrin1a. Briefly: AVEXIS domain mapping with monomeric prey proteins. Type of experiment: binding, zebrafish. Particulars: monomeric preys.
Description: For the binding interface mapping experiments we used monomeric prey proteins. The concentration of the monomeric preys has been determined as described for the AVEXIS assay (β ? lactamase enzymatic activity). […] Both prey and bait orientations were tested in the domain mapping screen and two repeats for each orientation had been carried out.
To map down the Netrin1a binding region in DraxinA we generated a series of DraxinA truncations and deletions and tested them for binding against Netrin1a (FIG. 4).

Take “EVMPTLDMALFDWTDYEDLKP (listed as Homo sapiens) [SEQ ID NO.: 1]”: the “binding to human β-Netrin family members” value in experiment [1] was “not”. Further, the “binding to Netrin-1” value in the experiment with Netrin-1 is on record as “bound”. For the same substance, in the experiment with Netrin-3, the “binding to Netrin-3” value is recorded as “bound”.
With “Vasn: Vasn (Slit-like2), binding partner of Islr2, reference weak interaction”, the Kd – broadly, the equilibrium constant for the complex coming apart – at Islr2 is 12 µM.
In the case of “EVMPTLDMTLFDWTDYEDMKP (Danio rerio) [21aa DraxinA derived peptide, 21aa fragment (aa232-252) of zebrafish DraxinA, as AVEXIS prey or bait]”, the entries for the “binding specificity against protein library” value in the experiment on Netrin1a [2] (listed as DraxinAaa232-252-bait) and with Netrin1a [2] (listed as DraxinAaa232-252-prey) were “only interacted with the Ntn1a-prey” and “only bound to the Ntn1a-bait”, respectively. For the same substance, in the experiment with Netrin1a [3], the “binding of DraxinA truncations and deletions to Netrin1a” value was “sufficient for the binding”.
